Patent US20250177419A1, “PHARMACEUTICAL COMPOSITION COMPRISING NICLOSAMIDE OR PHARMACEUTICALLY ACCEPTABLE SALT THEREOF AND PREPARATION METHOD THEREFOR” (WEBIOTREE CO., LTD, priority 2022, published 2025)

Legend:
[1] = test system: Beta and Omicron variants of SARS-CoV-2; test: Antiviral efficacy test in Vero E6 cells, qRT-PCR viral genome copy; type: cell-based
[2] = test system: SARS-CoV-2 Omicron (B11529); test: Antiviral efficacy test in Vero E6 cells, qRT-PCR viral genome copy, Omicron; type: cell-based

O=C(Nc1ccc([N+](=O)[O-])cc1Cl)c1cc(Cl)ccc1O [niclosamide]
effectiveness in inhibiting viral proliferation compared to remdesivir [1]: over 1.7 times | antiviral efficacy against the Omicron variant compared to the Beta variant [2]: more than four times higher antiviral efficacy
